Assay results reported in patent US12421257B2, “Compositions and methods for inhibiting group II intron RNA” (YALE UNIVERSITY, priority 2018, dated 2025).
Converted amounts (≈) assume the structure as drawn.

Legend:
C. parapsilosis = assay: MIC determination against C. parapsilosis; format: cell-based, Candida parapsilosis; conditions: Lodderomyces parapsilosis; RPMI-1640, 35° C. or 37° C., turbidity after 24 and 48 hours
Experimental: Minimal inhibitory concentrations (MICs) for C. parapsilosis were determined in a final volume of 100 μl. Fresh stock solutions of control antifungal drugs (Amphotericin B and Itraconazole) and of test compounds were prepared at 3.2 mg/ml and at 12.8 mg/ml respectively in DMSO. After placing the stock in the first well, solutions of test compounds and antifungal controls were serially diluted 1:2 with DMSO into the first […] successive wells of a 12-well row on a 96-well plate (as described above). After dilution, 2.5 μl from each of these 10 wells were transferred onto a separate 96-well plate and diluted with 122.5 μl of RPMI-1640 medium (Sigma). Wells 11 and 12 contained 2.5 μl DMSO and 122.5 μl of RPMI-1640 as a positive growth control (no compound) and sterility control (no inoculum added). A 50 μl volume was taken from each of the RPMI dilutions (wells 1-12) and transferred to the wells of a third 96-well plate (assay plate), where they were mixed with an equal volume (50 μl) of freshly prepared inoculum of C. parapsilosis in RPMI-1640 medium, set at a density to provide the 0.5×10^3 to 2.5×10^3 colony forming units per 1 mL (except for the sterility control). Sterility control was mixed with 50 μl of sterile medium.
The final concentration range of the assay was 0.25-128 μg/ml for test compounds and 0.0625-32 μg/ml for Amphotericin B and Itraconazole. The final concentration of DMSO was 1%. The assay plate was incubated at 35° C. or 37° C. and visually analyzed for turbidity after 24 and 48 hours of incubation. The lowest compound concentration at which no growth was apparent is reported as the MIC. All experiments were performed in triplicate.

HEK-293T cells = assay: Cytotoxicity in HEK-293T cells (Cell Titer Glo); format: cell-based, human; conditions: Homo sapiens, cytotoxicity, 24 hours with compound, read-out: IC50 HEK-293
Experimental: HEK-293T cells were cultured in Dulbecco's Modified Eagle's Medium (DMEM) (Gibco) supplemented with 10% Fetal Bovine Serum (FBS, Gibco) and 100 U/ml of Penicillin-Streptomycin (Gibco) at 37° C. and 5% CO2. For the cytotoxicity experiments, cells were aliquoted into black 96-well plates with a clear bottom (Corning 3603) at a concentration of 10,000 cells per well. The cells were grown at 37° C., 5% CO2 for 5-6 hours, then the medium was replaced with the same medium without FBS and cells were grown at 37° C., 5% CO2 for 24 hours. Freshly prepared stock solutions of test compounds (12.8 mg/ml in DMSO) were serially diluted 1:2 with DMSO into the first 11 successive wells of a 12-well row on a 96-well plate as described above. Well 12 was used as a growth control (no compound). […] After incubation, cell viability was determined using the luminescent Cell Titer Glo cell viability assay (Promega), in which 100 μl of the assay reagent was added to each well of the assay plate. After gentle shaking for 7-10 minutes, the plates were analyzed on a Synergy H1 plate reader (BioTek). Luminescence was plotted against the compound concentration and IC50 values were determined by fitting the data to a 4-parameter logistic function c+(d−c)/(1+(x/a)^b), where a is the IC50, b is the slope parameter, c is the minimum response and d is the maximum response. Experiments were replicated to ensure reproducibility.

[1] = tested on: ai5γ group II intron (D135 ribozyme); assay: Fluorescent D135 ribozyme cleavage assay (IC50); format: biochemical, Saccharomyces cerevisiae; conditions: D135 ribozyme cleavage of substrate 17/2 DL, 100 mM MgCl2, 500 mM KCl, 37° C., 10 minutes
Experimental: The D135 ribozyme (Su et al., 2005, Nucleic Acids Res, 33:6674-6687), fluorescently labeled oligo substrate 17/2 DL (FIG. 1A-FIG. 1D) (both at 20 nM final concentrations in 50 mM MOPS, pH 7.0, 100 mM MgCl2, 0.5M KCl), and the test compounds (final concentration of 10 μM in 50 mM MOPS, pH 7.0, 100 mM MgCl2, 0.5M KCl) were aliquoted onto black non-binding 384-well plates (Corning 3757) using the multidrop combi (ThermoFisherScientific) and pintool (V & P Scientific). The reaction mixtures were incubated at 37° C. for 45 minutes, then the reaction was quenched with 100 mM EDTA and fluorescence intensity was analyzed on a Tecan Infinite multimode plate reader (λex 520 nm, λem 560 nm, 5 nm bandwidth). Data were normalized to untreated wells and wells lacking the D135 ribozyme, and percent of inhibition was calculated using ActivityBase (IDBS). The Z′-factor was calculated as described (Zhang et al., 1999, J Biomol Screen, 4:67-73): Z′=1−3×(σp+σn)/|μp−μn|, • where μp and σn are mean value and standard deviation for the positive control (substrate only), and where μn and σn are mean value and standard deviation for the negative control (no compound). The average Z′-factor from the screen was 0.83±0.03. IC50 Measurement for the Small Molecule Inhibition of the D135 Ribozyme Cleavage Reaction.
Black 96-well plates (Corning 3695) were filled with 50 μl of solution containing 20 nM D135 ribozyme, 20 nM double-labeled substrate 17/2 DL and small molecule inhibitor in 50 mM MOPS, pH 7.0, 100 mM MgCl2 and 500 mM KCl. Small molecule inhibitors were tested at 19 different concentrations ranging from 5 nM to 1 mM. Plates were incubated at 37° C. for 10 minutes, then reaction mixtures were quenched with 100 mM EDTA and analyzed on the Synergy H1 plate reader (BioTek). Each experiment was performed in triplicate. Data were fit to a 4-parameter logistic function c+(d−c)/(1+(x/a)^b), where a is the IC50, b is the slope parameter, c is the minimum response and d is the maximum response. Data are reported as average±s.e.m

Row | SMILES | MIC (C. parapsilosis) [µg/mL] | IC50 (HEK-293T cells) [µg/mL] | IC50 [1] [µM]
1 | O=C1/C(=C/c2cc(O)c(O)c(O)c2)Oc2ccccc21 [APY-024, (Z)-2-(3,4,5-Trihydroxybenzylidene)benzofuran-3(2H)-one] | 8 (≈ 29.6 µM) | 23 ± 2 | 
2 | O=C(N/N=C/c1cccc(O)c1)c1cc(O)c(O)c(O)c1 [APY-040] | 8 (≈ 27.8 µM) | 30.1 | 9.9
3 | Oc1cc(-c2csc(-c3ccc(Cl)cc3)n2)cc(O)c1O [NED-2014] | 8 (≈ 25 µM) | 0.6 | 46 ± 2
4 | COc1ccc(/C=N/NC(=O)c2cc(O)c(O)c(O)c2)c(OC)c1 [NED-2036, N′-(2,4-dimethoxybenzylidene)-3,4,5-trihydroxybenzohydrazide] | 8 (≈ 24.1 µM) | 8.2 | 14 ± 1
5 | Oc1cc(-c2nc3ccc(C(F)(F)F)cc3s2)cc(O)c1O [NED-2016] | 4 (≈ 12.2 µM) | 1.5 | > 1000
6 | O=C(c1ccc([N+](=O)[O-])cc1)c1cc2cc(-c3ccc(CO)cc3)ccc2o1 [APY-100] | > 128 | > 128 | > 1000
7 | CCN(CC)CCNC(=O)c1c(C)[nH]c(/C=C/C(=O)c2cc(O)c(O)c(O)c2)c1C [NED-2041] | 32 (≈ 77 µM) |  | 12 ± 4
8 | C#CCOc1ccc2ccccc2c1/C=N/NC(=O)c1cc(O)c(O)c(O)c1 [NED-2174, (E)-3,4,5-trihydroxy-N′-((2-(prop-2-yn-1-yloxy)naphthalen-1-yl)methylene)benzohydrazide] | 4 to 8 (≈ 10.6 to 21.3 µM) | 2.7 | 5 ± 1
9 | O=C(N/N=C/c1cc(F)c(O)c(F)c1)c1cc(O)c(O)c(O)c1 [APY-031] | 32 (≈ 98.7 µM) | 47.8 | 6.3
10 | O=C(N/N=C/c1ccc(O)cc1Cl)c1cc(O)c(O)c(O)c1 [APY-033] | 8 (≈ 24.8 µM) | 50 | 6.5
11 | COc1ccc2ccccc2c1/C=N/NC(=O)c1cc(O)c(O)c(O)c1 [NED-2173, (E)-3,4,5-trihydroxy-N′-((2-methoxynaphthalen-1-yl)methylene)benzohydrazide] | 8 (≈ 22.7 µM) | 8.6 | 6 ± 1
12 | NNC(=O)c1cc(O)c(O)c(O)c1 [NED-2047, 3,4,5-trihydroxybenzohydrazide] | 16 to 32 (≈ 86.9 to 174 µM) |  | 77 ± 3
13 | O=C(c1cc(O)c(O)c(O)c1)N1CCC(c2noc3cc(F)ccc23)CC1 [APY-088] | 16 (≈ 43 µM) | 6.55 | 24
14 | COc1cc(/C=N/NC(=O)c2cc(O)c(O)c(O)c2)cc(OC)c1O [APY-035] | 4 (≈ 11.5 µM) | 39.3 | 7.7
15 | O=C(c1cc(O)c(O)c(O)c1)N1CCC(c2ccccc2)CC1 [APY-087] | 32 (≈ 102 µM) | 8.4 | 79
16 | Cc1[nH]c(/C=C/C(=O)c2cc(O)c(O)c(O)c2)c(C)c1C(=O)N1CCC(N(C)C)CC1 [NED-2042] | 16 (≈ 37.4 µM) |  | > 1000
17 | O=C(O)c1ccc2oc(C(=O)c3cc(O)c(O)c(O)c3)cc2c1 [NED-2017] | 16 to 32 (≈ 50.9 to 102 µM) |  | > 1000

Row | SMILES | MIC (C. parapsilosis) [µg/mL] | IC50 (HEK-293T cells) [µg/mL] | IC50 [1] [µM]
18 | O=C(c1cc(O)c(O)c(O)c1)N1CCN(c2ccccc2)CC1 [NED-2015] | 16 to 32 (≈ 50.9 to 102 µM) | 4.4 | > 1000
19 | O=C(N/N=C/c1c(O)ccc2ccccc12)c1cc(O)c(O)c(O)c1 [NED-2037, (E)-3,4,5-trihydroxy-N′-((2-hydroxynaphthalen-1-yl)methylene)benzohydrazide] | 16 (≈ 47.3 µM) | 2.8 | 1.8 ± 0.5
20 | COc1cccc(/C=N/NC(=O)c2ccc(O)c(O)c2)c1O [APY-054] | > 128 | > 64 | > 500
21 | O=C(N/N=C/c1c(OCc2ccccn2)ccc2ccccc12)c1cc(O)c(O)c(O)c1 [NED-2175, (E)-3,4,5-trihydroxy-N′-((2-(pyridin-2-ylmethoxy)naphthalen-1-yl)methylene)benzohydrazide] | 4 to 8 (≈ 9.31 to 18.6 µM) | 14 | 2.3 ± 0.8
22 | O=C(Nc1cc(O)c(O)c(O)c1)N1CCN(c2ccc(Cl)c(Cl)c2)CC1 [NED-2035] | > 128 | 1.6 | 55 ± 4
23 | CCCCNc1nc(-c2cc(O)c(O)c(O)c2)cs1 [NED-2034] | 8 to 16 (≈ 28.5 to 57.1 µM) | 22 | > 1000
24 | O=C(N/N=C/c1cncnc1)c1cc(O)c(O)c(O)c1 [APY-057] | 16 (≈ 58.3 µM) | 39.4 | 12.9
25 | O=C(N/N=C/C1CCCCC1)c1cc(O)c(O)c(O)c1 [NED-2251, (E)-N′-(cyclohexylmethylene)-3,4,5-trihydroxybenzohydrazide] | 16 to 32 (≈ 57.5 to 115 µM) |  | 
26 | COc1cc(/C=C2\Oc3cc(O)cc(O)c3C2=O)cc(OC)c1 [APY-012] | > 128 |  | > 500
27 | CC(C)N1CCN(C(=O)c2ccc3oc(C(=O)c4cc(O)c(O)c(O)c4)cc3c2)CC1 [NED-2022, (4-isopropylpiperazin-1-yl)(2-(3,4,5-trihydroxybenzoyl)-benzofuran-5-yl)methanone] | 16 (≈ 37.7 µM) |  | 52 ± 12
28 | O=C(c1cc(O)c(O)c(O)c1)c1cc2cc(-c3ccc(C(=O)NC4CCCC4)c(Cl)c3)ccc2o1 [APY-095] | 4 to 8 (≈ 8.13 to 16.3 µM) | 2.5 | 
29 | CCN(Cc1ccccc1)C(=O)c1ccc(-c2ccc3oc(C(=O)c4cc(O)c(O)c(O)c4)cc3c2)cc1 [APY-096] | 2 to 4 (≈ 3.94 to 7.88 µM) | 1.4 | 
30 | O=C(c1cc(O)c(O)c(O)c1)c1cc2ccccc2o1 [APY-068, Benzofuran-2-yl(3,4,5-trihydroxyphenyl)methanone] | 16 (≈ 59.2 µM) | 1.3 ± 0.3 | 
31 | COc1cc(/C=N/NC(=O)c2cc(O)c(O)c(O)c2)cc(OC)c1OC [NED-2039, (E)-3,4,5-trihydroxy-N′-(3,4,5-trimethoxybenzylidene)benzohydrazide] | 8 (≈ 22.1 µM) |  | 6 ± 1
32 | CCCCNS(=O)(=O)c1ccc(-c2ccc3oc(C(=O)c4cc(O)c(O)c(O)c4)cc3c2)cc1 [APY-094, N-Butyl-4-{2[(3,4,5-trihydroxyphenyl)carbonyl]-1-benzofuran-5-yl}benzene-1-sulfonamide] | 8 to 16 (≈ 16.6 to 33.2 µM) | 15 ± 4 | 
33 | Cc1ccc(NC(=O)c2ccc3oc(C(=O)c4cc(O)c(O)c(O)c4)cc3c2)c(C)c1 [NED-2021, N-(2,4-dimethylphenyl)-2-(3,4,5-trihydroxybenzoyl)benzofuran-5-carboxamide] | 32 to 64 (≈ 76.7 to 153 µM) |  | > 1000
